The values below come from publication PMC2956102 (International Journal of Molecular Sciences, 2010).

In one data set the target is intestinal maltase. Description: Intestinal α-glucosidase (maltase) inhibition assay, rat intestinal acetone powder. It counts as biochemical. As to conditions: for IC50: 37 mM maltose, pH 6.9, 37 °C, 30 min, means ± S.E.M., n = 3. The protocol:
(§1) The assessment of α-glucosidase inhibitory activity was performed according to our previous report. Briefly, 100 mg of rat intestinal acetone powder was homogenized in 3 mL of 0.9% NaCl solution. After centrifugation (12,000 g × 30 min), 10 μL of the supernatant (maltase = 0.68 units/mg protein, sucrase = 0.10 units/mg protein) was incubated with 70 μL of substrate solution (37 mM maltose, 54 mM sucrose), and 20 μL of sample at various concentrations in 0.1 M phosphate buffer pH 6.9 at 37 °C for 30 min (maltase assay) and 60 min (sucrase assay). The mixtures were suspended in boiling water for 10 min to stop the reaction. The concentrations of glucose released from the reaction mixtures were determined by glucose oxidase method. Acarbose was used as a positive control for this assay.
(§2) The reaction was performed according to the above assay (α-glucosidase and pancreatic α-amylase). Results were expressed as a percentage inhibition of the corresponding control values.

For data set [1] the following is noted: cited from earlier work.
The target of data set [2] is T1, intestinal sucrase (Rattus norvegicus, UniProt P23739).
T1 construct: 100 mg of rat intestinal acetone powder was homogenized in 3 mL of 0.9% NaCl solution; tissue Sigma Chemical Co. Ltd. (St. Louis, MO); host or cells: rat intestine (acetone powder, supernatant of the saline homogenate)
As to the kind of experiment: Intestinal α-glucosidase (sucrase) inhibition assay, rat intestinal acetone powder. As to conditions: for Percentage intestinal sucrase inhibition in combination with acarbose, compared with acarbose alone: 1 μM compound + 3.12 μM acarbose, Figure 3; for IC50: 54 mM sucrose, pH 6.9, 37 °C, 60 min, means ± S.E.M., n = 3. It counts as biochemical. The protocol: as §1, with “method.” for “method. Acarbose was used as a positive control for this assay.”
as §2

Data set [3] has as its target T2, porcine pancreatic α-amylase (Sus scrofa, UniProt P00690).
T2 construct: purchased Sigma Chemical Co. Ltd. (St. Louis, MO)
T2 sequence (P00690 16-511): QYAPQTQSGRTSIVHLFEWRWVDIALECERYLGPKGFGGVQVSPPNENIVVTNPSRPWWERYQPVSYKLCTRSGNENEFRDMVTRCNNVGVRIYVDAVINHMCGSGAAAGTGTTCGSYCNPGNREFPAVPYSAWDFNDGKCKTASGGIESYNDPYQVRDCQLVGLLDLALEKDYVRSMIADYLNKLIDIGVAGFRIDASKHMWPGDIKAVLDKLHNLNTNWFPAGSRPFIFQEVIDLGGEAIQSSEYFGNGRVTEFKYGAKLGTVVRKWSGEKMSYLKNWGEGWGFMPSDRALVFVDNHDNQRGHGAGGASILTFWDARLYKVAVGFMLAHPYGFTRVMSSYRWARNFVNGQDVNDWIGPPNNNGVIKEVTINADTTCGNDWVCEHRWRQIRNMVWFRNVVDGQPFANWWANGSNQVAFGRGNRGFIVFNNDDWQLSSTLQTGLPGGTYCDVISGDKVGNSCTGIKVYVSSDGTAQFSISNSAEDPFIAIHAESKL
Description: Pancreatic α-amylase inhibition assay (starch, DNS reagent). It counts as biochemical. As to conditions: for Percentage pancreatic α-amylase inhibition in combination with acarbose, compared with acarbose alone: 1.0 μM compound + 3.12 μM acarbose, Figure 4; for IC50: 1 g/L starch, amylase 3 U/mL, pH 6.9, 10 min, means ± S.E.M., n = 3. The protocol: The pancreatic α-amylase inhibition assay was performed according to our previous reports. Porcine pancreatic α-amylase was dissolved in 0.1 M phosphate buffer saline, pH 6.9. The various concentrations of test compounds were added to solution containing in 1 g/L starch and phosphate buffer. The reaction was initiated by adding amylase (3 U/mL) to the incubation medium to a final volume of 500 μL. After 10 min, the reaction was stopped by adding 0.5 mL dinitrosalicylic (DNS) reagent (1% 3,5-dinitrosalicylic acid, 0.2% phenol, 0.05% Na2SO3, and 1% NaOH in aqueous solution) to the reaction mixture. The mixtures were heated at 100 °C for 10 min and 500 μL of 40% potassium sodium tartarate solution was added to the mixtures to stabilize the color. After cooling to room temperature in a cold water bath, absorbance was recorded at 540 nm using a spectrophotometer.
as §2

Data set [4] addresses T1, intestinal sucrase. To be noted: cited from earlier work.
The next data set deals with pancreatic β-cell line. Set-up: method as in PMID 15631504. As to conditions: ref [16]; cited from earlier work.
In another data set the test system is intestinal α-glucosidase. To be noted: combination of acarbose and compound; ref [8]; cited from earlier work.
A further data set concerns 3T3-L1 adipocytes. Set-up: method as in PMID 18179781. As to conditions: H2O2- or TNF-α-induced, via inhibition of JNK signal pathway; ref [15]; cited from earlier work.
The test system of a further data set is yeast α-glucosidase. Set-up: method as in PMID 15558946. To be noted: ref [9]; cited from earlier work.

By IC50 is commonly meant the concentration that gives 50% inhibition.

Molecules are shown by their SMILES. Like-named read-outs stand apart in the source and are kept apart here.

T1 sequence (P23739 1014-1841 limits assumed): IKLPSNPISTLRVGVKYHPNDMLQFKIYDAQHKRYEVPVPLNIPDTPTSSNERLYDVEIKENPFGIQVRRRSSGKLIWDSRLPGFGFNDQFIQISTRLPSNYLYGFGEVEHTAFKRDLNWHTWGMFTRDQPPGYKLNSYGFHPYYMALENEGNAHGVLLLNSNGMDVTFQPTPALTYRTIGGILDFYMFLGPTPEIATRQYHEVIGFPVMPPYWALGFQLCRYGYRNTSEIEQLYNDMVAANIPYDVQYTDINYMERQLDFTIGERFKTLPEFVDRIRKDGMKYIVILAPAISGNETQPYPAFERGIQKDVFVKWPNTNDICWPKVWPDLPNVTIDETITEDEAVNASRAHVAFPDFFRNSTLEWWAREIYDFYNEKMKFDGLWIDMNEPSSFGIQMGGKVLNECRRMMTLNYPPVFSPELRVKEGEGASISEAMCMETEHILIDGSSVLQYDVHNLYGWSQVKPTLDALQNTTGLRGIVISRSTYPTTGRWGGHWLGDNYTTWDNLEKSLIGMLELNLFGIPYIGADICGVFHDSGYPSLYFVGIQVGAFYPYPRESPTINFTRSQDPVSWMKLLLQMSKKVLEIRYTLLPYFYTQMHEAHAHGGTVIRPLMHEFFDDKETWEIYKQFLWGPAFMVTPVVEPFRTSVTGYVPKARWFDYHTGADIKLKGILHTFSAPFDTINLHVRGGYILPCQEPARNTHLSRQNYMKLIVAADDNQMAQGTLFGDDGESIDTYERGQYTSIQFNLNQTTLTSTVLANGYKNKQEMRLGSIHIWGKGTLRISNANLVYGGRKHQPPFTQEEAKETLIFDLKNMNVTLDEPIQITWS
T1 sequence (P23739 2-1013 partner limits assumed): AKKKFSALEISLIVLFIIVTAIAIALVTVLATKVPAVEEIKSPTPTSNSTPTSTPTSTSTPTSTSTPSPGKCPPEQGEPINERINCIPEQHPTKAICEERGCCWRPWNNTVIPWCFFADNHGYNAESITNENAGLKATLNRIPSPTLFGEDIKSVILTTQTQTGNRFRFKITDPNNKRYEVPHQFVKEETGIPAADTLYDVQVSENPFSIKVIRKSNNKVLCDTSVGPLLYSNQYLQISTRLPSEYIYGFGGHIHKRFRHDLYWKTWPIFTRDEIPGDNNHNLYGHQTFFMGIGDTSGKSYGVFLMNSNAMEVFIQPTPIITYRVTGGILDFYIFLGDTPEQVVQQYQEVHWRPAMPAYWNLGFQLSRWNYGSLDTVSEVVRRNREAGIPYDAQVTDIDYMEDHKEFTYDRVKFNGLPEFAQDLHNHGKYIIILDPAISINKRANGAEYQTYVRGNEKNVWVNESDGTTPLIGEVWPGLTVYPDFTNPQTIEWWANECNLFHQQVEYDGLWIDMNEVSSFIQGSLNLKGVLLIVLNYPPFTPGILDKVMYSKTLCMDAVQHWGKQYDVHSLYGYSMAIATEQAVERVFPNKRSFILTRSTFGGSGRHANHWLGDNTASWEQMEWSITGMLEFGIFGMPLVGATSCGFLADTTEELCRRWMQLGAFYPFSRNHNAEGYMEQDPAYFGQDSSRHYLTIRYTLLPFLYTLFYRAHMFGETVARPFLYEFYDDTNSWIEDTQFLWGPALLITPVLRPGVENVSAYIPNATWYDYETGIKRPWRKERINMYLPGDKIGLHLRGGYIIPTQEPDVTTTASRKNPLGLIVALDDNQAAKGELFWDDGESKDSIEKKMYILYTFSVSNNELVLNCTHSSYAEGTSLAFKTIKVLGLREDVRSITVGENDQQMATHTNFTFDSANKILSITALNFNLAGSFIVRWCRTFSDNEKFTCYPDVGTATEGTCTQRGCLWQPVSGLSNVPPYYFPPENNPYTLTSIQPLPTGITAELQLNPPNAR

On intestinal maltase, `C[C@H]1O[C@H](O[C@H]2[C@H](O)[C@@H](O)[C@@H](O[C@H]3[C@H](O)[C@@H](O)C(O)O[C@@H]3CO)O[C@@H]2CO)[C@H](O)[C@@H](O)[C@@H]1N[C@H]1C=C(CO)[C@@H](O)[C@H](O)[C@H]1O` (stereo partly drawn) [Acarbose] yielded an IC50 of 3 ± 1 µM. Moreover, the “Reduction in the incidence of diabetes” value in [1] (acarbose treatment, ref [18]) is reported as 25%. Further, the “Reduction of the postprandial peak of glycemia” value in data set [1] (acarbose treatment, ref [19]) was 20%. For the same compound, the “Most common adverse effect” value in [1] (dose-dependent, flatulence, meteorism and abdominal distention, ref [19]) is “gastrointestinal disturbance”. In addition, the “Duration of the effect on postprandial glycemia” value in data set [1] (ref [19]) is reported as at most 5 h. In addition, in [1] (ref [20],[21]), the “Dose exceeding the saturated binding of α-glucosidase, no increase in inhibitory effect” value is on record as above 300 mg/day and the “Lowest dose with clinical effects” value is 150 mg/day.
Regarding `Oc1cc(O)c2cc(O)c(-c3ccc(O)c(O)c3)[o+]c2c1` [Cyanidin, Cyanidin chloride], in the data set on intestinal maltase (1 μM compound + 0.05 μM acarbose, Figure 2), the “Percentage intestinal maltase inhibition in combination with acarbose, compared with acarbose alone” value is reported as “No change”. The compound further yielded an IC50 on intestinal maltase above 3000 µM. At intestinal sucrase [2], the “Intestinal sucrase inhibitory activity” value was “weak”; the “Percentage intestinal sucrase inhibition in combination with acarbose, compared with acarbose alone” value (“Percentage intestinal sucrase inhibition” below) was “No change”; half-maximal inhibition (IC50) was put at 1420 ± 250 µM. In data set [3], the “Pancreatic α-amylase inhibitory activity” value was “weak”; the “Percentage pancreatic α-amylase inhibition in combination with acarbose, compared with acarbose alone” value is “significantly increased”; half-maximal inhibition (IC50) was put at 380 ± 10 µM.
`OC[C@H]1O[C@@H](Oc2cc3c(O[C@@H]4O[C@H](CO)[C@@H](O)[C@H](O)[C@H]4O)cc(O)cc3[o+]c2-c2ccc(O)c(O)c2)[C@H](O)[C@@H](O)[C@@H]1O` [Cyanidin-3,5-diglucoside, cyanidin-3,5-diglucoside]: the IC50 at intestinal maltase was above 3000 µM. For the same compound, on intestinal sucrase [2], the “Intestinal sucrase inhibitory activity” value was “inactive”; the “Percentage intestinal sucrase inhibition” value is “synergistic effects”; the IC50 was above 2000 µM. Further, in [3], the “Pancreatic α-amylase inhibitory activity” value was “no inhibitory activity”; the “Percentage pancreatic α-amylase inhibition in combination with acarbose, compared with acarbose alone” value is reported as “did not show significant changes”; the IC50 is above 1000 µM.
As for `OC[C@H]1O[C@@H](Oc2cc3c(O)cc(O)cc3[o+]c2-c2ccc(O)c(O)c2)[C@H](O)[C@@H](O)[C@H]1O` [Cyanidin-3-galactoside, cyanidin-3-galactoside chloride], the IC50 on intestinal maltase was above 3000 µM. Also, the “Percentage intestinal sucrase inhibition” value on intestinal sucrase [2] is listed as “synergistic effects”. In addition, in data set [3], the “Pancreatic α-amylase inhibitory activity” value is reported as “no inhibitory activity”; the “Percentage pancreatic α-amylase inhibition in combination with acarbose, compared with acarbose alone” value is listed as “did not show significant changes”; the IC50 is above 1000 µM. In addition, the “Type of inhibition against intestinal sucrase” value on intestinal sucrase [4] (kinetic model, ref [8]) is “mixed type”. Further, the IC50 on intestinal sucrase [4] (previously reported value, ref Adisakwattana et al. [8]) was 500 ± 50 µM. In the data set on pancreatic β-cell line, the Insulin secretion result is “directly stimulate insulin secretion”. In addition, the “Effect of combination with acarbose on intestinal α-glucosidase inhibition” value in the data set with intestinal α-glucosidase is on record as “synergistic effect”.
`OC[C@H]1O[C@@H](Oc2cc3c(O)cc(O)cc3[o+]c2-c2ccc(O)c(O)c2)[C@H](O)[C@@H](O)[C@@H]1O` [Cyanidin-3-glucoside, cyanidin-3-glucoside chloride] gave an IC50 at intestinal maltase above 3000 µM. At intestinal sucrase [2], the “Percentage intestinal sucrase inhibition” value is “synergistic effects” and it took 970 ± 50 µM to reach half-maximal inhibition (IC50). In [3], the “Percentage pancreatic α-amylase inhibition in combination with acarbose, compared with acarbose alone” value is given as “significantly increased” and the IC50 came out at 300 ± 10 µM. In the data set with pancreatic β-cell line, the Insulin secretion result is reported as “directly stimulate insulin secretion”. In the data set with 3T3-L1 adipocytes, the “Action against induced insulin resistance” value is on record as “protective action”.
For the compound `C[C@@H]1O[C@@H](OC[C@H]2O[C@@H](Oc3cc4c(O)cc(O)cc4[o+]c3-c3ccc(O)c(O)c3)[C@H](O)[C@@H](O)[C@@H]2O)[C@H](O)[C@H](O)[C@H]1O` [cyanidin-3-rutinoside], the “Manner of inhibition of yeast α-glucosidase” value in the data set on yeast α-glucosidase is listed as “non-competitive”.
